Data reported in patent publication US11129389B2, “Gluten-free grain-concentrate substitute for fermented wheat germ food product and method of preparation” (priority 2013, dated 2021).

Assay: In vivo experiments: activity level after removal of a component
Conditions: named component removed from product
Description: The basis for the disclosure that 2-6 methoxy substituted benzoquinones is not an active component of the present invention is vivo experiments.

Row | Molecule | activity level of the present invention when the component was removed
1 | 2-6 methoxy substituted benzoquinones | remained unchanged
2 | COc1cc(O)cc(OC)c1O [a, 2,6-dimethoxy-1,4-hydroquinone] | decreased
3 | COC1=CC(=O)C=CC1=O [b, monomethoxy-1,4-benzoquinone] | decreased
4 | COc1cc(O)ccc1O [c, monomethoxy-1,4-hydroquinone] | decreased
